Where only a bound is given, the exact number is not on record here.

Drawing on patent US11661403B2, “Oxadiazole compounds” (Vivace Therapeutics, Inc., priority 2018, dated 2023), this text covers IC50 for 36 compounds.

This experiment concerns 8XTBD luciferase reporter (YAP) in HEK293T cells. The experiment is described as follows: YAP Reporter Assay. In kind it is cell-based. The following applies: Homo sapiens, HEK-293T; HEK293T cells stably transfected with 8XTBD luciferase reporter and pRLTK; 24-hr incubation; top concentration 3 μM; read-out: Firefly Luciferase IC50.
As for `CN(C#N)CCCc1nnc(-c2ccccc2Nc2ccc(C(F)(F)F)cc2)o1` [Compound 129, N-methyl-N-(3-(5-(2-((4-(trifluoromethyl)phenyl)amino)phenyl)-1,3,4-oxadiazol-2-yl)propyl)cyanamide], the IC50 (in general, the concentration at which inhibition is half-maximal) is less than 100 nM. Regarding `CC(O)(CC#N)c1nnc(-c2ccccc2Nc2ccc(C(F)(F)F)cc2)o1` (stereo not drawn) [Compound 130, 3-hydroxy-3-(5-(2-((4-(trifluoromethyl)phenyl)amino)phenyl)-1,3,4-oxadiazol-2-yl)butanenitrile], the IC50 is less than 100 nM. `CC1(c2nnc(-c3ccccc3Nc3ccc(C(F)(F)F)cc3)o2)CO1` (stereo not drawn) [Compound 132, 2-(5-(2-methyloxiran-2-yl)-1,3,4-oxadiazol-2-yl)-N-(4-(trifluoromethyl)phenyl)aniline]: the IC50 is less than 100 nM. Consider `C=C(C)c1nnc(-c2ccccc2Nc2ccc(C(F)(F)F)cc2)o1` [Compound 133, 2-(5-(prop-1-en-2-yl)-1,3,4-oxadiazol-2-yl)-N-(4-(trifluoromethyl)phenyl)aniline], for which the IC50 was in the range of 100 to 1000 nM.

Turning to `CC(O)(CN)c1nnc(-c2ccccc2Nc2ccc(C(F)(F)F)cc2)o1` (stereo not drawn) [Compound 134, 1-amino-2-(5-(2-((4-(trifluoromethyl)phenyl)amino)phenyl)-1,3,4-oxadiazol-2-yl)propan-2-ol], the IC50 fell in the range of 100 to 1000 nM.

Turning to `CCC(C)(O)c1nnc(-c2ccccc2Nc2ccc(C(F)(F)F)cc2)o1` (stereo not drawn) [Compound 135, 2-(5-(2-((4-(trifluoromethyl)phenyl)amino)phenyl)-1,3,4-oxadiazol-2-yl)butan-2-ol], the IC50 was less than 100 nM. For the compound `NC1(Cc2nnc(-c3ccccc3Nc3ccc(C(F)(F)F)cc3)o2)CC1` [Compound 136, 2-(5-((1-aminocyclopropyl)methyl)-1,3,4-oxadiazol-2-yl)-N-(4-(trifluoromethyl)phenyl)aniline], the IC50 fell in the range of 100 to 1000 nM.

For the compound `N#CCc1nnc(-c2ccccc2Nc2ccc(C(F)(F)F)cc2)o1` [Compound 137, 2-(5-(2-((4-(trifluoromethyl)phenyl)amino)phenyl)-1,3,4-oxadiazol-2-yl)acetonitrile], the half-inhibitory concentration (IC50) was in the range of 100 to 1000 nM. Consider `CN(C#N)CC1(c2nnc(-c3ccccc3Nc3ccc(C(F)(F)F)cc3)o2)CC1` [Compound 140, N-methyl-N-((1-(5-(2-((4-(trifluoromethyl)phenyl)amino)phenyl)-1,3,4-oxadiazol-2-yl)cyclopropyl)methyl)cyanamide], for which the IC50 was less than 100 nM.

Take `CN(C#N)C(C)(C)Cc1nnc(-c2ccccc2Nc2ccc(C(F)(F)F)cc2)o1` [Compound 143, N-methyl-N-(2-methyl-1-(5-(2-((4-(trifluoromethyl)phenyl)amino)phenyl)-1,3,4-oxadiazol-2-yl)propan-2-yl)cyanamide]: the IC50 fell in the range of 1000 to 5000 nM. As to `CNCC(C)(C)c1nnc(-c2ccccc2Nc2ccc(C(F)(F)F)cc2)o1` [Compound 144, 2-(5-(2-methyl-1-(methylamino)propan-2-yl)-1,3,4-oxadiazol-2-yl)-N-(4-(trifluoromethyl)phenyl)aniline], the IC50 lay within 100 to 1000 nM. Under `CN(C#N)CC(C)(C)c1nnc(-c2ccccc2Nc2ccc(C(F)(F)F)cc2)o1` [Compound 146, N-methyl-N-(2-methyl-2-(5-(2-((4-(trifluoromethyl)phenyl)amino)phenyl)-1,3,4-oxadiazol-2-yl)propyl)cyanamide] stands less than 100 nM. For `CNC(C)Cc1nnc(-c2ccccc2Nc2ccc(C(F)(F)F)cc2)o1` (stereo not drawn) [Compound 147, 2-(5-(2-(methylamino)propyl)-1,3,4-oxadiazol-2-yl)-N-(4-(trifluoromethyl)phenyl)aniline], the IC50 was in the range of 1000 to 5000 nM.

Turning to `CC(Cc1nnc(-c2ccccc2Nc2ccc(C(F)(F)F)cc2)o1)N(C)C#N` (stereo not drawn) [Compound 149, N-methyl-N-(1-(5-(2-((4-(trifluoromethyl)phenyl)amino)phenyl)-1,3,4-oxadiazol-2-yl)propan-2-yl)cyanamide], the IC50 was less than 100 nM.

For `CNCC(C)c1nnc(-c2ccccc2Nc2ccc(C(F)(F)F)cc2)o1` (stereo not drawn) [Compound 150, 2-(5-(1-(methylamino)propan-2-yl)-1,3,4-oxadiazol-2-yl)-N-(4-(trifluoromethyl)phenyl)aniline], the IC50 was in the range of 100 to 1000 nM. Turning to `CC(CN(C)C#N)c1nnc(-c2ccccc2Nc2ccc(C(F)(F)F)cc2)o1` (stereo not drawn) [Compound 152, N-methyl-N-(2-(5-(2-((4-(trifluoromethyl)phenyl)amino)phenyl)-1,3,4-oxadiazol-2-yl)propyl)cyanamide], the IC50 is less than 100 nM. With `CNC1(c2nnc(-c3ccccc3Nc3ccc(C(F)(F)F)cc3)o2)CC1` [Compound 153, 2-(5-(1-(methylamino)cyclopropyl)-1,3,4-oxadiazol-2-yl)-N-(4-(trifluoromethyl)phenyl)aniline], the IC50 lay in the range of 100 to 1000 nM. Under `CN(C#N)C1(c2nnc(-c3ccccc3Nc3ccc(C(F)(F)F)cc3)o2)CC1` [Compound 155, N-methyl-N-(1-(5-(2-((4-(trifluoromethyl)phenyl)amino)phenyl)-1,3,4-oxadiazol-2-yl)cyclopropyl)cyanamide] stands less than 100 nM. Turning to `CNC(C)(C)c1nnc(-c2ccccc2Nc2ccc(C(F)(F)F)cc2)o1` [Compound 156, 2-(5-(2-(methylamino)propan-2-yl)-1,3,4-oxadiazol-2-yl)-N-(4-(trifluoromethyl)phenyl)aniline], the IC50 was in the range of 100 to 1000 nM. Then `CN(C#N)C(C)(C)c1nnc(-c2ccccc2Nc2ccc(C(F)(F)F)cc2)o1` [Compound 158, N-methyl-N-(2-(5-(2-((4-(trifluoromethyl)phenyl)amino)phenyl)-1,3,4-oxadiazol-2-yl)propan-2-yl)cyanamide], with less than 100 nM. For the compound `CNC(C)c1nnc(-c2ccccc2Nc2ccc(C(F)(F)F)cc2)o1` (stereo not drawn) [Compound 159, 2-(5-(1-(methylamino)ethyl)-1,3,4-oxadiazol-2-yl)-N-(4-(trifluoromethyl)phenyl)aniline], the IC50 was 100 to 1000 nM. Regarding `CC(c1nnc(-c2ccccc2Nc2ccc(C(F)(F)F)cc2)o1)N(C)C#N` (stereo not drawn) [Compound 161, N-methyl-N-(1-(5-(2-((4-(trifluoromethyl)phenyl)amino)phenyl)-1,3,4-oxadiazol-2-yl)ethyl)cyanamide], the IC50 is less than 100 nM.

`CC(C)(C(N)=O)c1nnc(-c2ccccc2Nc2ccc(C(F)(F)F)cc2)o1` [Compound 162, 2-methyl-2-(5-(2-((4-(trifluoromethyl)phenyl)amino)phenyl)-1,3,4-oxadiazol-2-yl)propanamide]: the IC50 was less than 100 nM. Under `CC(C)(c1nnc(-c2ccccc2Nc2ccc(C(F)(F)F)cc2)o1)S(C)(=O)=O` [Compound 163, 2-(5-(2-(methylsulfonyl)propan-2-yl)-1,3,4-oxadiazol-2-yl)-N-(4-(trifluoromethyl)phenyl)aniline] stands 100 to 1000 nM; under `CC(C)(C#N)c1nnc(-c2ccccc2Nc2ccc(C(F)(F)F)cc2)o1` [Compound 164, 2-methyl-2-(5-(2-((4-(trifluoromethyl)phenyl)amino)phenyl)-1,3,4-oxadiazol-2-yl)propanenitrile], less than 100 nM. For `O=C(O)C1(c2nnc(-c3ccccc3Nc3ccc(C(F)(F)F)cc3)o2)CC1` [Compound 166, 1-(5-(2-((4-(trifluoromethyl)phenyl)amino)phenyl)-1,3,4-oxadiazol-2-yl)cyclopropane-1-carboxylic Acid], the IC50 was less than 100 nM. Turning to `CN(Cc1nnc(-c2ccccc2Nc2ccc(C(F)(F)F)cc2)o1)C(=O)OC(C)(C)C` [Compound 167, Tert-Butyl Methyl((5-(2-((4-(trifluoromethyl)phenyl)amino)phenyl)-1,3,4-oxadiazol-2-yl)methyl)carbamate], the IC50 fell in the range of 1000 to 5000 nM. For `CN(C#N)Cc1nnc(-c2ccccc2Nc2ccc(C(F)(F)F)cc2)o1` [Compound 168, N-methyl-N-((5-(2-((4-(trifluoromethyl)phenyl)amino)phenyl)-1,3,4-oxadiazol-2-yl)methyl)cyanamide], the IC50 was less than 100 nM.

With `FC(F)(F)c1ccc(Nc2ccccc2-c2nnc(C3CCCN3)o2)cc1` (stereo not drawn) [Compound 169, 2-(5-(pyrrolidin-2-yl)-1,3,4-oxadiazol-2-yl)-N-(4-(trifluoromethyl)phenyl)aniline], the IC50 was in the range of 100 to 1000 nM.

On to `N#CN1CCCC1c1nnc(-c2ccccc2Nc2ccc(C(F)(F)F)cc2)o1` (stereo not drawn) [Compound 171, 2-(5-(2-((4-(trifluoromethyl)phenyl)amino)phenyl)-1,3,4-oxadiazol-2-yl)pyrrolidine-1-carbonitrile], for which the IC50 is less than 100 nM.

In the case of `CNCCc1nnc(-c2ccccc2Nc2ccc(C(F)(F)F)cc2)o1` [Compound 172, 2-(5-(2-(methylamino)ethyl)-1,3,4-oxadiazol-2-yl)-N-(4-(trifluoromethyl)phenyl)aniline], the IC50 lay in the range of 1000 to 5000 nM.

As for `CN(C#N)CCc1nnc(-c2ccccc2Nc2ccc(C(F)(F)F)cc2)o1` [Compound 174, N-methyl-N-(2-(5-(2-((4-(trifluoromethyl)phenyl)amino)phenyl)-1,3,4-oxadiazol-2-yl)ethyl)cyanamide], the IC50 was less than 100 nM.

As to `FC(F)(F)c1ccc(Nc2ccccc2-c2nnc(C3CCNC3)o2)cc1` (stereo not drawn) [Compound 175, 2-(5-(pyrrolidin-3-yl)-1,3,4-oxadiazol-2-yl)-N-(4-(trifluoromethyl)phenyl)aniline], the IC50 lay within 100 to 1000 nM. Under `N#CN1CCC(c2nnc(-c3ccccc3Nc3ccc(C(F)(F)F)cc3)o2)C1` (stereo not drawn) [Compound 177, 3-(5-(2-((4-(trifluoromethyl)phenyl)amino)phenyl)-1,3,4-oxadiazol-2-yl)pyrrolidine-1-carbonitrile] stands 100 to 1000 nM. Consider `CC1(c2nnc(-c3ccccc3Nc3ccc(C(F)(F)F)cc3)o2)CCCO1` (stereo not drawn) [Compound 178, 2-(5-(2-methyltetrahydrofuran-2-yl)-1,3,4-oxadiazol-2-yl)-N-(4-(trifluoromethyl)phenyl)aniline], for which the IC50 is less than 100 nM. With `CC(O)(CCO)c1nnc(-c2ccccc2Nc2ccc(C(F)(F)F)cc2)o1` (stereo not drawn) [Compound 179, 3-(5-(2-((4-(trifluoromethyl)phenyl)amino)phenyl)-1,3,4-oxadiazol-2-yl)butane-1,3-diol], the IC50 is less than 100 nM.
